Test in all cases: inhibition of tumour cell growth, NCI panel, 48 h
Assay [1] has as its system SNB-19 CNS.
The subject of assay [2] is MOLT-4 leukemia.
The subject of assay [3] is SF-539 CNS.
The subject of assay [4] is HS 578T breast.
The test system of assay [5] is SN12C renal.
The test system of assay [6] is UO-31 renal.
Assay [7] deals with HOP-62 NSCLC.
Assay [8] concerns UACC-62 melanoma.
For assay [9], the system named is IGROV1 ovarian.
In assay [10] the test system is SK-MEL-2 melanoma.
Assay [11] has as its system PC-3 prostate.
In assay [12] the test system is K-562 leukemia.
Assay [13] concerns HCT-116 colon.
In assay [14] the test system is HCC-2998 colon.
Assay [15] has as its system UACC-257 melanoma.
The test system of assay [16] is NCI/ADR-RES ovarian.
Assay [17] relates to MDA-N.
The subject of assay [18] is MDA-MB-231 breast.
The test system of assay [19] is SK-MEL-28 melanoma.
Assay [20] deals with BT-549 breast.

Molecules are shown by their SMILES.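 Test compounds were applied to cells in 96-well plates for 48 hours at 5 doses. TGI marks complete inhibition of growth.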

Take `Nc1ncnc2c1ncn2[C@H]1CC[C@@H](NO)C1`: the TGI in [1], in assay [2], in assay [3], in [4], in assay [5] and in [6] was > 100 µM each time. Further, the TGI in [7], in assay [8], in assay [9], in assay [10], in assay [11] and in [12] was > 100 µM each time. Moreover, the TGI in [13], in [14], in assay [15], in assay [16], in assay [17] and in assay [18] was > 100 µM in each case. Moreover, the TGI in assay [19] and in assay [20] was > 100 µM throughout.

Consider `NS(=O)(=O)c1ccc(Nc2c3ccccc3nc3c(C(=O)NCCO)cccc23)cc1`, for which the TGI in assay [1] worked out at 0.355 µM; in assay [2], 0.0604 µM; in assay [3] it was 0.27 µM; in assay [4], 0.79 µM; in [5], 0.557 µM; in [6], 0.532 µM. Moreover, the TGI is 0.443 µM in assay [7]; 0.303 µM in assay [8]; 0.45 µM in [9]; 0.334 µM in assay [10]; 0.432 µM in assay [11]; 0.887 µM in [12]. In addition, the TGI is 0.412 µM in assay [13]; 0.333 µM in assay [14]; 0.315 µM in assay [15]; > 1 µM in assay [16]; 0.412 µM in [17]; 0.362 µM in assay [18]. Besides, the TGI came out at 0.338 µM in [19] and 0.311 µM in assay [20].

`CCCCCCCCCCCCCCCCOCC(CCl)OP(=O)(O)OP(=O)(O)OCC1OC(n2ccc(N)nc2=O)C(O)C1O` (stereo not given): the TGI in assay [1], in [2], in [3], in assay [4], in assay [5] and in assay [6] was > 100 µM in each case. For the same compound, the TGI in assay [7], in assay [8], in [9], in assay [10], in [11] and in assay [12] was > 100 µM in each case. Further, the TGI in assay [13], in assay [14], in assay [15], in assay [16], in [17] and in assay [18] was > 100 µM each time. For the same compound, the TGI in assay [19] and in assay [20] was > 100 µM in each case.

Turning to `Cn1/c(=N\N=C(\CNCCO)[C@@H](O)[C@@H]2OC(c3ccccc3)OC[C@H]2O)sc2ccccc21` (stereo not given in full), the TGI stood at 26.3 µM in assay [1]; 33.6 µM in assay [2]; 32.7 µM in assay [3]; 31.1 µM in assay [4]; 35.2 µM in assay [5]; 30.1 µM in assay [6]. In addition, the TGI in assay [7] is 34.7 µM; in assay [8] it was 31.2 µM; in assay [9], 35 µM; in assay [10] it was 33.3 µM; in assay [11] it was 35.5 µM; in assay [12], 33.3 µM. Also, the TGI in assay [13] is 29.5 µM; in assay [14], 32 µM; in [15], 39 µM; in assay [16] it was > 100 µM; in assay [17] it was 32.5 µM; in [18], 29.8 µM. The TGI in [19] was 33.2 µM; in assay [20], 37.2 µM.

In the case of `Clc1cc(Br)c2c3c(c(Br)cc(Cl)c13)C(Br)=C2Br`, the TGI in assay [1] is > 100 µM; in assay [2], 45.6 µM; in assay [3] it was 35.7 µM; in assay [4], > 100 µM; in assay [5], 44.7 µM; in assay [6] it was > 100 µM. The TGI is > 100 µM in [7]; 79.7 µM in assay [8]; 36.5 µM in assay [9]; > 100 µM in assay [10]; > 100 µM in assay [11]; > 100 µM in assay [12]. The TGI in [13] was 40.3 µM; in assay [14] it was 38.6 µM; in [15] it was > 100 µM; in assay [16], 57.8 µM; in assay [17], > 100 µM; in assay [18], 82 µM. The results for the TGI in assay [19] and in [20] were > 100 µM and 78 µM, respectively.

As for `COC1CC(NC(=O)C(F)(F)F)C(OC(C)=O)C(C)O1` (stereo not given), the TGI in assay [1], in assay [2], in assay [3], in assay [4], in assay [5] and in assay [6] was > 100 µM each time. In addition, the TGI in assay [7], in [8], in [9], in assay [10], in assay [11] and in [12] was > 100 µM each time. Further, the TGI in assay [13], in assay [14], in assay [15], in assay [16], in assay [17] and in assay [18] was > 100 µM throughout. Further, the TGI in assay [19] and in [20] was > 100 µM each time.

Turning to `Cc1ccc(C(=O)OCC(C)C)cc1N=NN(C)C`, the TGI in [1], in [2], in assay [3], in assay [4], in assay [5] and in assay [6] was > 100 µM throughout. Also, the TGI in assay [7], in assay [8], in assay [9], in [10], in assay [11] and in assay [12] was > 100 µM each time. The TGI in assay [13] was > 100 µM; in assay [14] it was > 100 µM; in assay [15], 71.1 µM; in [16], > 100 µM; in [17], > 100 µM; in assay [18], > 100 µM. For the same compound, the TGI in assay [19] and in assay [20] was > 100 µM throughout.

These data come from PubChem BioAssay (NCI).
